Measured values reported in US20260335514A1, “Drug-Coated Medical Devices & Methods of Making” (Bard Peripheral Vascular, Inc., priority 2022, published 2026).
Values after ≈ are worked out from the molar mass of the structure shown. Values joined by “and” are separate entries in the source; they are usually repeats but may differ in a detail not shown here. Equal values may be shown once. Read-outs that look alike come from different tables or passages of the source.

Experiments:
[1] = tested on: femoral arteries of porcine model; experiment: histology of stented arteries (Example 4); type: in vivo
Experimental: (§1) In Example 4, formulations for stent drug coatings were prepared as subsequently described, followed by obtaining 7, 28, 60, and 90 days histological data from in vivo studies when implanted in femoral arteries of porcine model.
(§2) Five total formulations were used: a control of PVDF only, prepared at a concentration of 5 mg/mL in a solution of 90% acetone and 10% cyclohexane; a colchicine coating, prepared in a 5:1 PVDF: colchicine ratio with 5 mg/mL provided to 90% acetone and 10% DMF; a roflumilast coating at a 5:1 PVDF:roflumilast ratio, with […] provided to a 42.5% EtOAc, 50% acetone, and 7.5% DMF solution; a tadalafil coating prepared at 3:1 PVDF:tadalafil, provided at 5 mg/mL in a solution of 30% EtOAc, 60% acetone, and 10% DMF; and a sunitinib coating provided at 3:1 PVDF:sunitinib malate, prepared at 5 mg/mL in a solution of 60% MeOAc, 30% acetone, and 10% DMF. Coatings were provided to 5×40 mm and 6×40 mm stents. Loading concentrations were assessed prior to and after ETO (ethylene oxide) sterilization and no discernable change was noted by the process.
(§3) Histological studies were then performed at 60 and 90 days.

[2] = tested on: femoral arteries of porcine model; experiment: morphometry of stented arteries (Example 4); type: in vivo; settings: for amount of restenosis observed (in words): 60 and 90 days
Experimental: as §1, §2, §3

[3] = tested on: femoral arteries of porcine model; experiment: in vivo pharmacokinetics of drug coated stents (Example 4); settings: 7 and 28 days after implantation; preliminary; FIG. 10
Experimental: as §1, §2
FIG. 10 sets forth some preliminary pharmacokinetic data obtained from the prepared stents at 7 and 28 days after implantation within the pigs.

[4] = solubility in PBS; type: physicochemical
Experimental: Drug coatings with crystalline forms of tyrosine kinase inhibitors were also examined. Sunitinib was again chosen as the candidate drug and crystal pamoate salts were prepared by recrystaliization in ethanol or ethanol and DMF for a hemi-pamoate.

[5] = octanol-water; cited from earlier work
[6] = cited from earlier work

SMILES | Fibrin % ([1]; 60 days) [%] | Giant cell % ([1]; 60 days) [%] | Inflammation Score ([1]; 60 days) | PGs/Collagen score ([1]; 60 days) | Fibrin % ([1]; 90 days) [%] | Giant cell % ([1]; 90 days) [%] | Inflammation Score ([1]; 90 days) | PGs/Collagen score ([1]; 90 days) | solubility in PBS [4] [µM] | Restenosis % area ([1]; 60 days) [%] | Restenosis % area ([1]; 90 days) [%] | further results
COc1cc2c(c(OC)c1OC)-c1ccc(OC)c(=O)cc1[C@@H](NC(C)=O)CC2 [Colchicine, colchicine] | – | – | – | – | – | – | – | – | – | – | – | Inflammation Score ([1]; pig, in vivo): 3.06; Restenosis % area ([1]; pig, in vivo): 67.45% and 81.83%; % Stenosis ([2]; pig, in vivo): 67.45% and 81.83%; Medial Area ([2]; pig, in vivo): 1.22; percentage of stenosis (in words) ([2]; pig, in vivo): seemingly accelerated amount of stenosis
CCN(CC)CCNC(=O)c1c(C)[nH]c(/C=C2\C(=O)Nc3ccc(F)cc32)c1C [Sunitinib, sunitinib] | 33.17 | 4.14 | 1.19 | 1.06 | 1.0 | 2.03 | 0.25 | 1.31 | – | 33.76 | 30.77 | amount of restenosis observed (in words) [2]: improvements in the amount of restenosis observed; percentage of stenosis (in words) ([2]; 60 days): similar
CN1CC(=O)N2[C@H](c3ccc4c(c3)OCO4)c3[nH]c4ccccc4c3C[C@@H]2C1=O [Tadalafil, tadalafil] | 26.69 | 7.26 | 1.19 | 1.44 | 1.31 | 30.12 | 1.94 | 1.38 | – | 35.38 | 27.4 | pharmacokinetic data versus target (in words) [3]: lower than expected; amount of restenosis observed (in words) [2]: improvements in the amount of restenosis observed; percentage of stenosis (in words) ([2]; 60 days): similar
CC(=O)O[C@H]1C(=O)[C@@]2(C)[C@H]([C@H](OC(=O)c3ccccc3)[C@]3(O)C[C@H](OC(=O)[C@H](O)[C@@H](NC(=O)c4ccccc4)c4ccccc4)C(C)=C1C3(C)C)[C@]1(OC(C)=O)CO[C@@H]1C[C@@H]2O [paclitaxel] | – | – | – | – | – | – | – | – | – | – | – | log P [5]: 7.4
CCN(CC)CCNC(=O)c1c(C)[nH]c(/C=C2\C(=O)Nc3ccc(F)cc32)c1C [pamoate crystal] | – | – | – | – | – | – | – | – | 9.6 | – | – | –
CCN(CC)CCNC(=O)c1c(C)[nH]c(/C=C2\C(=O)Nc3ccc(F)cc32)c1C [sunitinib malate] | – | – | – | – | – | – | – | – | – | – | – | solubility in PBS ([4]; listed as malate salt): 1231 µM; water solubility [6]: about 25 mg/mL

Continued, in another order:

Fibrin % ([1]; 60 days) [%] | Giant cell % ([1]; 60 days) [%] | Inflammation Score ([1]; 60 days) | PGs/Collagen score ([1]; 60 days) | Fibrin % ([1]; 90 days) [%] | Giant cell % ([1]; 90 days) [%] | Inflammation Score ([1]; 90 days) | PGs/Collagen score ([1]; 90 days) | solubility in PBS [4] [µM] | SMILES | Restenosis % area ([1]; 60 days) [%] | Restenosis % area ([1]; 90 days) [%] | further results
16.65 | 0.49 | 0.69 | 0.75 | 1.0 | 0.0 | 0.56 | 1.44 | – | O=C(Nc1c(Cl)cncc1Cl)c1ccc(OC(F)F)c(OCC2CC2)c1 [Roflumilast, roflumilast] | 40.45 | 30.69 | pharmacokinetic data versus target (in words) [3]: expected target ranges
– | – | – | – | – | – | – | – | 26.4 (≈ 10.5 µg/mL) | CCN(CC)CCNC(=O)c1c(C)[nH]c(/C=C2\C(=O)Nc3ccc(F)cc32)c1C [Sunitinib as a free base, sunitinib] | – | – | –
– | – | – | – | – | – | – | – | 6.02 (≈ 2.4 µg/mL) | CCN(CC)CCNC(=O)c1c(C)[nH]c(/C=C2\C(=O)Nc3ccc(F)cc32)c1C [hemi-pamoate] | – | – | –
